For 25 molecules, IC50 results are on record in patent publication US20220298160A1, “COMPOUNDS USEFUL IN HIV THERAPY” (priority 2019, published 2022).

Structures are written as SMILES. Where two headings read alike, the source gives them in different places.

Assay [1] relates to HIV pseudotyped virus (NL4-3 provirus), M184V. The assay is classed as cell-based. Conditions: PSV assay; U373 cells expressing human CD4 and CXCR4 or CCR5; luciferase signal after 3 days of culture.
Assay [2] deals with HIV pseudotyped virus (NL4-3 provirus), WT. In words: PSV assay (pseudotyped virus assay), WT. To be noted: U373 cells expressing human CD4 and CXCR4 or CCR5, luciferase signal after 3 days of culture.
Text: A pseudotyped virus assay (PSV) was used to assess the potency of the HIV inhibitor. Replication defective virus was produced by co-transfection of a plasmid containing an NL4-3 provirus [containing a mutation in the envelope open reading frame (ORF) and a luciferase reporter gene replacing the nef ORF] and a CMV-promoter expression plasmid containing an ORF for various HIV gp160 envelope clones. The harvested virus was stored at −80 C in small aliquots and the titer of the virus measured to produce a robust signal for antiviral assays.
The PSV assay was performed by using U373 cells stably transformed to express human CD4, the primary receptor for HIV entry and either human CXCR4 or human CCR5 which are the co-receptors required for HIV entry as target cells for infection. […] This dose-range was applied to U373 cells and the pre-made pseudotyped virus added. The amount of luciferase signal produced after 3 days of culture was used to reflect the level of pseudotyped virus infection. An IC50, or the concentration of inhibitor required to reduce PSV infection by 50% from the infection containing no inhibitor was calculated. […] IC50 values were determined from a 10 point dose response curve using 3-4-fold serial dilution for each compound, which spans a concentration range >1000 fold.
The mark [3] stands for this setting: Human immunodeficiency virus 1, NL43, in Homo sapiens, 72 h, read-out: WT IC50 (μM), PSV assay.

For the molecule `C#C[C@]1(COC(=O)OCc2ccc(OC(=O)CCCCCCCCCCCCC)cc2)O[C@@H](n2cnc3c(N)nc(F)nc32)C[C@@H]1O` [Example 13, 4-((((((2R,3S,5R)-5-(6-amino-2-fluoro-9H-purin-9-yl)-2-ethynyl-3-hydroxytetrahydrofuran-2-yl)methoxy)carbonyl)oxy)methyl)phenyl tetradecanoate], the IC50 was found to be 17.8 nM in assay [1] and 0.0072 µM in assay [2] (setting [3]).
In the same order, the values of `C#C[C@]1(CO)O[C@@H](n2cnc3c(N)nc(F)nc32)C[C@@H]1OC(=O)NCC(=O)OCC` [Example 25, ethyl ((((2R,3S,5R)-5-(6-amino-2-fluoro-9H-purin-9-yl)-2-ethynyl-2-(hydroxymethyl)tetrahydrofuran-3-yl)oxy)carbonyl)glycinate] are 1260 nM and 1.18 µM.
In the same order, the values of `C#C[C@]1(CO)O[C@@H](n2cnc3c(N)nc(F)nc32)C[C@@H]1OC(=O)OCc1ccc(OC(=O)CCCCCCCCCCCCC)cc1` [Example 12, 4-((((((2R,3S,5R)-5-(6-amino-2-fluoro-9H-purin-9-yl)-2-ethynyl-2-(hydroxymethyl)tetrahydrofuran-3-yl)oxy)carbonyl)oxy)methyl)phenyl tetradecanoate] are 66.3 nM and 0.017 µM.
As to `C#C[C@]1(CO)O[C@@H](n2cnc3c(NC(=O)OC(COCCCCC)COC(=O)CCCC)nc(F)nc32)C[C@@H]1O` (single isomer, unassigned) [Example 37], the IC50 in assay [1] came to 32.4 nM; in assay [2] (setting [3]), 0.0095 µM.
In the same order, the values of `C#C[C@]1(CO)O[C@@H](n2cnc3c(N)nc(F)nc32)C[C@@H]1OC(=O)NCCCCCCCCCCCCCCCCCC` [Example 16, (2R,3S,5R)-5-(6-amino-2-fluoro-9H-purin-9-yl)-2-ethynyl-2-(hydroxymethyl)tetrahydrofuran-3-yl octadecylcarbamate] are 22400 nM and 15 µM.
In the same order, the values of `C#C[C@]1(CO)O[C@@H](n2cnc3c(NC(=O)OC(COC(=O)CCCCCCCC)COC(=O)CCCCCCCC)nc(F)nc32)C[C@@H]1O` [Example 33, 2-(((9-((2R,4S,5R)-5-ethynyl-4-hydroxy-5-(hydroxymethyl)tetrahydrofuran-2-yl)-2-fluoro-9H-purin-6-yl)carbamoyl)oxy)propane-1,3-diyl dinonanoate] are 24.3 nM and 0.0054 µM.
On to `C#C[C@]1(CO)O[C@@H](n2cnc3c(N)nc(F)nc32)C[C@@H]1OC(=O)OC1COC(=O)CCCCCCCCCCCC(=O)OC1` [Example 31, (2R,3S,5R)-5-(6-amino-2-fluoro-9H-purin-9-yl)-2-ethynyl-2-(hydroxymethyl)tetrahydrofuran-3-yl (6,18-dioxo-1,5-dioxacyclooctadecan-3-yl) carbonate], for which the 50% inhibitory concentration (IC50) in assay [1] is 47.8 nM; in assay [2] (setting [3]), 0.0151 µM.
The matching figures for `C#C[C@]1(CO)O[C@@H](n2cnc3c(N)nc(F)nc32)C[C@@H]1OC(=O)N1CCC(C)CC1` [Example 22, (2R,3S,5R)-5-(6-amino-2-fluoro-9H-purin-9-yl)-2-ethynyl-2-(hydroxymethyl)tetrahydrofuran-3-yl 4-methylpiperidine-1-carboxylate]: more than 25000 nM and 11.7 µM.
Consider `C#C[C@]1(COC(=O)NCCCCCCCC)O[C@@H](n2cnc3c(N)nc(F)nc32)C[C@@H]1O` [Example 2, ((2R,3S,5R)-5-(6-amino-2-fluoro-9H-purin-9-yl)-2-ethynyl-3-hydroxytetrahydrofuran-2-yl)methyl octylcarbamate], for which the 50% inhibitory concentration (IC50) is more than 25000 nM in assay [1] and more than 25 µM in assay [2] (setting [3]).
The matching figures for `C#C[C@]1(CO)O[C@@H](n2cnc3c(N)nc(F)nc32)C[C@@H]1OC(=O)OC(COC(C)=O)COC(C)=O` [Example 28, 2-(((((2R,3S,5R)-5-(6-amino-2-fluoro-9H-purin-9-yl)-2-ethynyl-2-(hydroxymethyl)tetrahydrofuran-3-yl)oxy)carbonyl)oxy)propane-1,3-diyl diacetate]: 39.2 nM and 0.0106 µM.
In the same order, the values of `C#C[C@]1(CO)O[C@@H](n2cnc3c(N)nc(F)nc32)C[C@@H]1OC(=O)OCc1ccc(OC(=O)CCCCCCCCCCCCCCCCCCC)cc1` [Example 11, 4-((((((2R,3S,5R)-5-(6-amino-2-fluoro-9H-purin-9-yl)-2-ethynyl-2-(hydroxymethyl)tetrahydrofuran-3-yl)oxy)carbonyl)oxy)methyl)phenyl icosanoate] are 3210 nM and 2.31 µM.
Turning to `C#C[C@]1(CO)O[C@@H](n2cnc3c(NC(=O)OC(COCCCCCCCCC)COC(=O)CCCCCCCC)nc(F)nc32)C[C@@H]1O` (single isomer, unassigned) [Example 36], the IC50 was found to be 22.9 nM in assay [1] and 0.0085 µM in assay [2] (read-out: WT IC50, PSV assay).
Take `C#C[C@]1(CO)O[C@@H](n2cnc3c(N)nc(F)nc32)C[C@@H]1OC(=O)NCCCCCCCCCCCC` [Example 15, (2R,3S,5R)-5-(6-amino-2-fluoro-9H-purin-9-yl)-2-ethynyl-2-(hydroxymethyl)tetrahydrofuran-3-yl dodecylcarbamate]: the half-inhibitory concentration (IC50) was more than 15000 nM in assay [1] and more than 15 µM in assay [2] (setting [3]).
In the case of `C#C[C@]1(CO)O[C@@H](n2cnc3c(N)nc(F)nc32)C[C@@H]1OC(=O)NC(C)(C)C` [Example 23, (2R,3S,5R)-5-(6-amino-2-fluoro-9H-purin-9-yl)-2-ethynyl-2-(hydroxymethyl)tetrahydrofuran-3-yl tert-butylcarbamate], the half-inhibitory concentration (IC50) is more than 25000 nM in assay [1] and more than 25 µM in assay [2] (setting [3]).
For the molecule `C#C[C@]1(COC(=O)OC2COC(=O)CCCCCCCCCCCC(=O)OC2)O[C@@H](n2cnc3c(N)nc(F)nc32)C[C@@H]1O` [Example 10, ((2R,3S,5R)-5-(6-amino-2-fluoro-9H-purin-9-yl)-2-ethynyl-3-hydroxytetrahydrofuran-2-yl)methyl (6,18-dioxo-1,5-dioxacyclooctadecan-3-yl) carbonate], the IC50 in assay [1] is 31.3 nM; in assay [2] (setting [3]), 0.0097 µM.
The matching figures for `C#C[C@]1(COC(=O)OCc2ccc(OC(=O)CCCCCCCCCCCCCCCCCCC)cc2)O[C@@H](n2cnc3c(N)nc(F)nc32)C[C@@H]1O` [Example 14, 4-((((((2R,3S,5R)-5-(6-amino-2-fluoro-9H-purin-9-yl)-2-ethynyl-3-hydroxytetrahydrofuran-2-yl)methoxy)carbonyl)oxy)methyl)phenyl icosanoate]: 2410 nM and 1.55 µM.
Consider `C#C[C@]1(CO)O[C@@H](n2cnc3c(N)nc(F)nc32)C[C@@H]1OC(=O)NCC(=O)OCCCCC` [Example 27, pentyl ((((2R,3S,5R)-5-(6-amino-2-fluoro-9H-purin-9-yl)-2-ethynyl-2-(hydroxymethyl)tetrahydrofuran-3-yl)oxy)carbonyl)glycinate], for which the half-maximal inhibitory concentration (IC50) in assay [1] was more than 25000 nM; in assay [2] (setting [3]) it was more than 25 µM.
With `C#C[C@]1(COC(=O)NC(C)C)O[C@@H](n2cnc3c(N)nc(F)nc32)C[C@@H]1O` [Example 6, ((2R,3S,5R)-5-(6-amino-2-fluoro-9H-purin-9-yl)-2-ethynyl-3-hydroxytetrahydrofuran-2-yl)methyl isopropylcarbamate], the values for the IC50 in assay [1] and in assay [2] (setting [3]) were 1080 nM and 0.56 µM, respectively.
The matching figures for `C#C[C@]1(COC(=O)NCCCCCCCCCCCC)O[C@@H](n2cnc3c(N)nc(F)nc32)C[C@@H]1O` [Example 3, ((2R,3S,5R)-5-(6-amino-2-fluoro-9H-purin-9-yl)-2-ethynyl-3-hydroxytetrahydrofuran-2-yl)methyl dodecylcarbamate]: 8170 nM and 2.01 µM.
In the same order, the values of `C#C[C@]1(CO)O[C@@H](n2cnc3c(N)nc(F)nc32)C[C@@H]1OC(=O)NCC(=O)OC(C)(C)C` [Example 26, tert-butyl ((((2R,3S,5R)-5-(6-amino-2-fluoro-9H-purin-9-yl)-2-ethynyl-2-(hydroxymethyl)tetrahydrofuran-3-yl)oxy)carbonyl)glycinate] are 17300 nM and 16.1 µM.
The matching figures for `C#C[C@]1(CO)O[C@@H](n2cnc3c(N)nc(F)nc32)C[C@@H]1OC(=O)NC1CC1` [Example 24, (2R,3S,5R)-5-(6-amino-2-fluoro-9H-purin-9-yl)-2-ethynyl-2-(hydroxymethyl)tetrahydrofuran-3-yl cyclopropylcarbamate]: 3740 nM and 1.48 µM.
With `C#C[C@]1(COC(=O)N(CC)CC)O[C@@H](n2cnc3c(N)nc(F)nc32)C[C@@H]1O` [Example 7, ((2R,3S,5R)-5-(6-amino-2-fluoro-9H-purin-9-yl)-2-ethynyl-3-hydroxytetrahydrofuran-2-yl)methyl diethylcarbamate], the concentration for half-maximal inhibition (IC50) in assay [1] stood at 2410 nM; in assay [2] (setting [3]), 1.28 µM.
Consider `C#C[C@]1(CO)O[C@@H](n2cnc3c(N)nc(F)nc32)C[C@@H]1OC(=O)NC(C)C` [Example 20, (2R,3S,5R)-5-(6-amino-2-fluoro-9H-purin-9-yl)-2-ethynyl-2-(hydroxymethyl)tetrahydrofuran-3-yl isopropylcarbamate], for which the IC50 in assay [1] was more than 25000 nM; in assay [2] (setting [3]) it was 10.5 µM.
In the same order, the values of `C#C[C@]1(CO)O[C@@H](n2cnc3c(N)nc(F)nc32)C[C@@H]1OC(=O)NC` [Example 18, (2R,3S,5R)-5-(6-amino-2-fluoro-9H-purin-9-yl)-2-ethynyl-2-(hydroxymethyl)tetrahydrofuran-3-yl methylcarbamate] are 9110 nM and 2.03 µM.
The matching figures for `C#C[C@]1(COC(=O)NCCCCC)O[C@@H](n2cnc3c(N)nc(F)nc32)C[C@@H]1O` [Example 4, ((2R,3S,5R)-5-(6-amino-2-fluoro-9H-purin-9-yl)-2-ethynyl-3-hydroxytetrahydrofuran-2-yl)methyl pentylcarbamate]: more than 25000 nM and 2.66 µM.

As a reminder, the IC50 is the concentration that inhibits the measured activity by half.
